Assay results reported in PubChem BioAssay AID2767 (The Scripps Research Institute Molecular Screening Center, 2010).
Activity calls are given as the source filed them. No rule for the calls is given here.

What follows are compounds tested against TEM-1 beta-lactamase (Escherichia coli) (UniProt Q932Y6) (assay: concentration-dependent inhibition of TEM-1 enzyme – biochemical, epi-absorbance, IC50, counter-screen for dual metallo-beta-lactamase inhibitor project, late-stage follow-up (AID 2767)). Conditions: nitrocefin absorbance.
Sequence of TEM-1 beta-lactamase (Escherichia coli) (Q932Y6 1-286): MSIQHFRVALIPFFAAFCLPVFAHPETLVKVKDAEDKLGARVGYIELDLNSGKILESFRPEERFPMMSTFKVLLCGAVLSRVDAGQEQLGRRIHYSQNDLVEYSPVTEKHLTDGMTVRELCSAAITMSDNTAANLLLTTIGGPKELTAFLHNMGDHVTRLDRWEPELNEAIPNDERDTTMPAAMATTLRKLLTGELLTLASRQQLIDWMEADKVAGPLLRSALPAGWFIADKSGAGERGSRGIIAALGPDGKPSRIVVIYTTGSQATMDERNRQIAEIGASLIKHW

| Structure (SMILES) | IC50 |
| --- | --- |
| COc1cccc[c]1[Hg+] | > 59.6 µM (inactive) |
| O=C(O)c1cc[c]([Hg][Cl])cc1 | > 59.6 µM (inactive) |
| [Hg+][c]1ccccc1 | > 59.6 µM (inactive) |
| O=C(O)c1ccc[c]([Hg+])c1 | > 59.6 µM (inactive) |
| Cc1cc[c]([Hg+])cc1 | > 59.6 µM (inactive) |
| CC(=O)Nc1cc[c]([Hg+])cc1 | > 59.6 µM (inactive) |
